Assay results published in publication PMC5988692, “AZ304, a novel dual BRAF inhibitor, exerts anti-tumour effects in colorectal cancer independently of BRAF genetic status” (British Journal of Cancer, 2018).
Where two headings read alike, the source gives them in different places.

How the values were obtained:
EGFR = EGFR (Homo sapiens, UniProt P00533); assay: Sandwich ELISA kinase assay; format: biochemical; details: ATP Km
Protocol: (§1) For RAF kinases, detailed assay information was described in ref.[18] Briefly, the kinase activity of BRAF WT, BRAF V600E, or CRAF was measured using an AlphaScreen assay (Perkin Elmer, MA) monitoring MEK1/2 phosphorylation at Ser217/221. For CDK2 and CDK4 kinases, activity was also measured by AlphaScreen, monitoring phosphorylation of biotin Rb peptide at Ser780. Similarly, MAP3K7, CSF1R and JAK2 kinase activity was measured by phosphorylation of their biotinylated substrates MKK6 kinase dead protein at Ser271/Thr275, or tyrosine phosphorylation of pEY or Tyk2 Tyr1054/1055 peptides, respectively. CSK, IGF1R, EGFR, FGFR1 and SRC kinase activity was measured using a sandwich ELISA detecting phosphorylated poly EAY peptide with a HRP conjugated phosphotyrosine antibody and TMB substrate, while p38 kinase activity was measured by monitoring phosphorylation of MBP protein with radiolabeled ^33P-ATP in a filter binding format. All assays were screened under respective ATP Km conditions and inhibitor IC50s were derived from either 5 (RAF kinases, CDK2, CDK4, MAP3K7, JAK2), 10 (CSK, IGF1R, EGFR, FGFR1, SRC) or 11 (p38, CSF1R) point compound dose response.

SRC = SRC (Homo sapiens, UniProt P12931); assay: Sandwich ELISA kinase assay; format: biochemical; details: ATP Km
Chain of SRC (P12931 whole entry, species assumed): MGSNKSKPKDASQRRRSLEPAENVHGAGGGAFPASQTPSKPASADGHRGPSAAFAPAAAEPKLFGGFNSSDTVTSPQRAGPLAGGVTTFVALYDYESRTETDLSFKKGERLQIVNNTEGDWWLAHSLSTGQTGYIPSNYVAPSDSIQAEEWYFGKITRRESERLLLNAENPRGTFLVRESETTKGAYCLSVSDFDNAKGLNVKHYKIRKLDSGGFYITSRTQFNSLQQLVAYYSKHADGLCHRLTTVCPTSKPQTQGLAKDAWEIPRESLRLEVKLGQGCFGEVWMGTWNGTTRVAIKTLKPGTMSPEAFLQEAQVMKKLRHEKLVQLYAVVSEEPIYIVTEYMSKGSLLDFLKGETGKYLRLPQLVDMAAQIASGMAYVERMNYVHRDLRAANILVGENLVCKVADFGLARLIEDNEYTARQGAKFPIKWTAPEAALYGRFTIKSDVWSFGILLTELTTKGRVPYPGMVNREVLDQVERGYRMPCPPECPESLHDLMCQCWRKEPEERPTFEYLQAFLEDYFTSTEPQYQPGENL
Protocol: as §1

CSK = CSK (Homo sapiens, UniProt P41240); assay: Sandwich ELISA kinase assay; format: biochemical; details: ATP Km
Chain of CSK (P41240 whole entry, species assumed): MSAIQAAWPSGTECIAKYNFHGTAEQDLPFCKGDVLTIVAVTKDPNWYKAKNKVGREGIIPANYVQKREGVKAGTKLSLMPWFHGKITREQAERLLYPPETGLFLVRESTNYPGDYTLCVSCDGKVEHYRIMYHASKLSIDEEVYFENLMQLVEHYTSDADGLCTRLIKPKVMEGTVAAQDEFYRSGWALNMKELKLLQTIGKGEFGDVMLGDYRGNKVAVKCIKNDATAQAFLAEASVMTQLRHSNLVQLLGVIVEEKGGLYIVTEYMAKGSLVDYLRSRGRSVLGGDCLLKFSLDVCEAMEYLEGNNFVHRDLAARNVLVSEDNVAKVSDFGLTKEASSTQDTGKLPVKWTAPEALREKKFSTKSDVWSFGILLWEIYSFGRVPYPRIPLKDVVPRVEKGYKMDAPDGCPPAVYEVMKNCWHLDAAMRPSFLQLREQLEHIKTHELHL
Protocol: as §1

FGFR = FGFR (Homo sapiens, UniProt P11362); assay: Sandwich ELISA kinase assay; format: biochemical; details: ATP Km
Chain of FGFR (P11362 22-822): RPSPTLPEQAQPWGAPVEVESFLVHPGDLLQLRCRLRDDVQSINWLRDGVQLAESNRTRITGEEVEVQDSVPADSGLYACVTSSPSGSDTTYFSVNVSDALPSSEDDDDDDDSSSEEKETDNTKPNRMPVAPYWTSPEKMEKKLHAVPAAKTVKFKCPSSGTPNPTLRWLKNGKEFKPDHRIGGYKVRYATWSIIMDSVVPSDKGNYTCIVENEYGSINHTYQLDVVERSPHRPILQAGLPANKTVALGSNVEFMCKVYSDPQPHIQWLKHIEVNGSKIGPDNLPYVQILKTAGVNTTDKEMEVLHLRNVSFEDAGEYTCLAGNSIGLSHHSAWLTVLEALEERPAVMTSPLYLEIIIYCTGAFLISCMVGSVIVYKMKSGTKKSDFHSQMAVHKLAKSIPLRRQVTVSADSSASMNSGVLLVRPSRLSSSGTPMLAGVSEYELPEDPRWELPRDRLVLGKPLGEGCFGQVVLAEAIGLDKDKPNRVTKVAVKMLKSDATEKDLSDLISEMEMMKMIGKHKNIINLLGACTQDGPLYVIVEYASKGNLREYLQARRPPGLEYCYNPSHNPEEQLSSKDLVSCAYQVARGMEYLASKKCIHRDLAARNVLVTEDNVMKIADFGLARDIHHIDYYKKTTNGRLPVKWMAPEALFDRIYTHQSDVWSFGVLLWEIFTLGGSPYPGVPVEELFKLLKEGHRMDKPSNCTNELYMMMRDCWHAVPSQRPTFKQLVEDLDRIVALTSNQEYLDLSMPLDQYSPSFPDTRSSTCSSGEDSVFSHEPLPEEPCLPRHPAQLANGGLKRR
Protocol: as §1

IGF1R = IGF1R (Homo sapiens, UniProt P08069); assay: Sandwich ELISA kinase assay; format: biochemical; details: ATP Km
Protocol: as §1

[1] = system: RKO, HT-29, DiFi and Caco-2 cells; assay: Western blot analysis in selected CRC cell lines; format: cell-based, human; details: four CRC cell lines
Protocol: (§2) For western-blotting in A375, A549 and MC-F7 cell lines, the detailed method was described in ref.[18] […] For western-blot in selected CRC cell lines, the cells were collected after treatment for indicated time and washed twice with cold PBS. Then cells were lysed in 1% Triton lysis buffer (50 mmol/L Tris-HCl, pH 7.4, 10 mmol/L EDTA, 100 mmol/L NaF, 150 mmol/L NaCl, 1% Triton X-100, 1 mmol/L PMSF 1 mmol/L Na3VO4 and 2 μg/mL aprotinin). After sonication and centrifugation, samples were quantified with the Lowry method. Next, all the protein samples were boiled at 95 °C for 5 min with 3× sampling buffer. After that, all the lysate samples were resolved by SDS polyacrylamide gel electrophoresis (SDS-PAGE) and followed by western blotting which means electronically transferred to nitrocellulose membranes. After blocking with 5% skim milk in TBST buffer (10 mM Tris-HCl pH 7.4, 150 mM NaCl, 0.1% Tween 20) at room temperature for 1 h, the blots were incubated with indicated antibodies shaking for 2 h, then overnight at 4 °C. Then the blots were washed four times with TBST buffer, and then incubated with secondary antibodies for 30 min at room temperature. After washing for another four times, the protein bands were detected with enhanced chemiluminescence reagent (SuperSignal Western Pico Chemiluminescent Substrate; Pierce, Rockford, IL, USA) and visualised with the Electrophoresis Gel Imaging Analysis System (DNR Bio-Imaging Systems, Jerusalem, Israel).
Two V600E mutant BRAF cell lines (RKO, HT-29) and two wild-type BRAF cell lines (DiFi, Caco-2) were treated with DMSO or increasing concentrations of AZ304 (0, 0.1, 1, 10, 100 μM), for 48 h (a) and 72 h (b). Viable cells were determined by MTT assay. c EdU incorporation assay. Four cells lines from (a) were treated with DMSO or indicated AZ304 for 24 h, followed by incubation with EdU and Hoechst in sequence. Hoechst 33342 (blue) and EdU (red) represent cell nuclei and nuclei of proliferative cells, respectively. The percentages of the EdU-positive cells are presented (right). Student’s t-tests were used for statistical analyses. Data are plotted as mean ± SD. *P < 0.05 vs. control; **P < 0.01 vs. control. d These four cells lines from (a) were treated with DMSO or 2 uM AZ304 for 6 h. Expression levels of phosphorylation ERK were analysed by Western blot. e BRAF mutant cell line RKO, and BRAF wild type cell line Caco-2 were treated with DMSO or 2 uM AZ304 for the indicated times. Expression levels of phosphorylation ERK were analysed by Western blot. […] Cell viability was determined by MTT assay

MAP3K7 = MAP3K7 (Homo sapiens, UniProt O43318); assay: AlphaScreen kinase assay; format: biochemical; details: ATP Km
Protocol: as §1

CSF1R = CSF1R (Homo sapiens, UniProt P07333); assay: AlphaScreen kinase assay; format: biochemical; details: ATP Km
Chain of CSF1R (P07333 20-972, species assumed): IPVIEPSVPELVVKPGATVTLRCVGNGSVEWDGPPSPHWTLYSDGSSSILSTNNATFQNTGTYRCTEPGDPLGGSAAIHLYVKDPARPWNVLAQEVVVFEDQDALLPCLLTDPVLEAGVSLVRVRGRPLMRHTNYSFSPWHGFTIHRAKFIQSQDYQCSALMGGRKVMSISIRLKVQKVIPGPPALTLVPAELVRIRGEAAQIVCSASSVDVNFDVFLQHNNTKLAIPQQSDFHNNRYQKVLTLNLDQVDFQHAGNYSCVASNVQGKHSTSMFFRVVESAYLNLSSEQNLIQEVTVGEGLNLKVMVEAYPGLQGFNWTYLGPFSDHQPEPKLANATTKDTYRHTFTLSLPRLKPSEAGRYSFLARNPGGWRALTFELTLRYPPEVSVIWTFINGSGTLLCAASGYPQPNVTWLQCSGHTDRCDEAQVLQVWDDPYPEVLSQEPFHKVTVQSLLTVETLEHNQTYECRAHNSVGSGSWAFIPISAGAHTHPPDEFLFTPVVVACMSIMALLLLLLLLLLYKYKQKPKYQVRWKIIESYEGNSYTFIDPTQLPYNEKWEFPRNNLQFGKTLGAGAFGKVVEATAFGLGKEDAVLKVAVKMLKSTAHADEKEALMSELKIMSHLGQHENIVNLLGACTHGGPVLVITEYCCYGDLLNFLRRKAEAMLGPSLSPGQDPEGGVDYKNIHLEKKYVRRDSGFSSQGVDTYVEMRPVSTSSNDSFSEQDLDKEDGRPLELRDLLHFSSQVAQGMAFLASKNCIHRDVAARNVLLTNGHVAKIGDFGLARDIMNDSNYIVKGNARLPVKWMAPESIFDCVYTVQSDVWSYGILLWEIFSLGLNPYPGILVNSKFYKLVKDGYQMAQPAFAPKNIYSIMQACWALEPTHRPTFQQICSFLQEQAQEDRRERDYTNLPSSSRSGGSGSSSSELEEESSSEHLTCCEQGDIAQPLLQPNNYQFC
Protocol: as §1

JAK2 = JAK2 (Homo sapiens, UniProt O60674); assay: AlphaScreen kinase assay; format: biochemical; details: ATP Km
Chain of JAK2 (O60674 whole entry, species assumed): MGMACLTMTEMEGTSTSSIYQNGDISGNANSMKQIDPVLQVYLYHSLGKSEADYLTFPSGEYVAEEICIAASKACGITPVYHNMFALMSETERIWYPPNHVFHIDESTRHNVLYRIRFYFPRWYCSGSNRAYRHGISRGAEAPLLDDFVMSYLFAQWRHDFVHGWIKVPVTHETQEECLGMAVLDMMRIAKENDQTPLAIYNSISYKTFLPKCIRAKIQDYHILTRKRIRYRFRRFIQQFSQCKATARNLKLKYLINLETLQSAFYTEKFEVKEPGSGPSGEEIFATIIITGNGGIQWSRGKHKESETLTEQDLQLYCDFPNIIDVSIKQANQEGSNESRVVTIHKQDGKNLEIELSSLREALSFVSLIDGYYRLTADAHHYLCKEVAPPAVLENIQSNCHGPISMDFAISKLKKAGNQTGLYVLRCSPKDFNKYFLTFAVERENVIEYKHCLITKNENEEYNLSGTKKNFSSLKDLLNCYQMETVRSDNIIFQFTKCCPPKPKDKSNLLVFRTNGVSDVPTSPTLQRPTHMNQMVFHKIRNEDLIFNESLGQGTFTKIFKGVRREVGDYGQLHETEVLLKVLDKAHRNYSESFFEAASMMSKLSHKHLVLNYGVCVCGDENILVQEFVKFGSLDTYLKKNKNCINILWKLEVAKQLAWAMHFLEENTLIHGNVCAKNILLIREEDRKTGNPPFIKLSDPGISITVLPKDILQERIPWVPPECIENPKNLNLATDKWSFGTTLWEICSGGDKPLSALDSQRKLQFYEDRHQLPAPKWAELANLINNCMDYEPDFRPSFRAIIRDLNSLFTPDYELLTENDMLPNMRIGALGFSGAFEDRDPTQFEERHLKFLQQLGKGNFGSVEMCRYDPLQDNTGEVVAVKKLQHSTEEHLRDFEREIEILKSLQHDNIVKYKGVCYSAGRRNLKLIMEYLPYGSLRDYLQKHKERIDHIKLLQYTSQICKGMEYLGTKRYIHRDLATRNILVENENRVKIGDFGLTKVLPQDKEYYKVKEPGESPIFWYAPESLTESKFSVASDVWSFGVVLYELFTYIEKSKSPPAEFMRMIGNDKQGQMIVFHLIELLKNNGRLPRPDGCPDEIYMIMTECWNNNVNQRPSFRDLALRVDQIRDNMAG
Protocol: as §1

A375 cells = assay: Western blot p-p38; format: cell-based, human; details: A375 (BRAF V600E), 75 min
Protocol: as §2, with “After blocking with 5% skim milk in TBST buffer (10 mM Tris-HCl pH 7.4, 150 mM NaCl, 0.1% Tween 20) at room temperature for 1 h, the blots were incubated with indicated antibodies shaking for 2 h, then overnight at 4 °C. Then the blots were washed four times with TBST buffer, and then incubated with secondary antibodies for 30 min at room temperature.” left out
Cells were incubated with DMSO or AZ304 for 75 min and p-ERK levels were determined using a p-ERK antibody based ELISA. […] Cells were incubated with DMSO or AZ304 (±EGF) for 75 min and p-ERK levels were determined using a p-ERK antibody based ELISA. […]

[2] = system: panel of human cancer cell lines with different BRAF and RAS genetic statuses; assay: Cell proliferation assay, ranges over the cell panel; format: cell-based; details: 72 h, 3 days, read-out: GI50 values, range
Protocol: The proliferation assays against a cell panel were performed as described in ref.[18] Briefly, the cells were treated with DMSO or multiple concentrations of AZ304 for 3 days. The cell growth was determined using the CellTiter 96 Aqueous One Cell Proliferation Assay (Promega, Madison, WI). […] The assays were done in triplicate across different plates.
Anti-proliferative activity of AZ304 against a panel of cell lines with different BRAF and RAS genetic status. […] Cell growth was determined by MTS assay.

CDK4 = CDK4 (Homo sapiens, UniProt P11802); assay: AlphaScreen kinase assay (Rb peptide); format: biochemical; details: ATP Km
Chain of CDK4 (P11802 whole entry, species assumed): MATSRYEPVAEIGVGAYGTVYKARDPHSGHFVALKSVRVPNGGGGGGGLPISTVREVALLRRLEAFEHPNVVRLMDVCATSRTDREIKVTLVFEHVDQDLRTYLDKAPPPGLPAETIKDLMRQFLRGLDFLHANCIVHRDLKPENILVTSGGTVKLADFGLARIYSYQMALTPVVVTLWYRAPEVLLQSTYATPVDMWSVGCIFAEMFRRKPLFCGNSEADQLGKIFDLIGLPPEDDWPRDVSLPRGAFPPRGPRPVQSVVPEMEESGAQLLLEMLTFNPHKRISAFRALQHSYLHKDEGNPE
Chain of CDK4 (P24385 whole entry partner, species assumed): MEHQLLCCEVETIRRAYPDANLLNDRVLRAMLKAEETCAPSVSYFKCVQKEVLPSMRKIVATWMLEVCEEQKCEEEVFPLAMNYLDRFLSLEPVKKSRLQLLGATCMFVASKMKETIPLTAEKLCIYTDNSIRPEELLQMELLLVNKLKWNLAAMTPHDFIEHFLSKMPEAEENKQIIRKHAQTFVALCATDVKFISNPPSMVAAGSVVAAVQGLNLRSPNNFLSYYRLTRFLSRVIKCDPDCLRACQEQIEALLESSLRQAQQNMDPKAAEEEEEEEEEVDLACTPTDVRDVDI
Protocol: as §1

CDK2 = CDK2 (Homo sapiens, UniProt P24941); assay: AlphaScreen kinase assay (Rb peptide); format: biochemical; details: ATP Km
Protocol: as §1

[3] = 2 μM AZ304, 10 μg/ml Cetuximab or combination, 36 h

Compound: COc1ccc2c(Nc3cc(NC(=O)c4cccc(C(C)(C)C#N)c4)ccc3C)ncnc2c1 [AZ304]
- IC50 (EGFR): > 10 µM
- IC50 (SRC): > 10 µM
- IC50 (CSK): 7.05 µM
- IC50 (FGFR): > 10 µM
- IC50 (IGF1R): > 10 µM
- BRAF, p-ERK, p-AKT and p-mTOR levels [1, 3]: decreased
- EGFR phosphorylation (p-EGFR) [1, 3]: increased
- phosphorylated SRC and STAT3 [1, 3]: relatively reduced expression levels
- cleaved caspase-9, caspase-3 and PARP ([1]; 2 μM AZ304, 10 μg/ml Cetuximab or combination, 48 h): overtly increased levels
- p-ERK levels ([1]; 2 uM AZ304, 6 h): reduced p-ERK levels in all four CRC cell lines
- IC50 (MAP3K7): 6.4 µM
- IC50 (CSF1R): 0.035 µM
- IC50 (JAK2): > 10 µM
- effect on p-p38 (A375 cells): potently inhibited p-p38
- GI50 ([2]; mutant BRAF cell lines): 0.08 to 7.72 µM
- GI50 ([2]; mutant RAS cell lines): 0.9 to 16.7 µM
- GI50 ([2]; wild type BRAF/RAS cell lines): 0.43 to 11.7 µM
- IC50 (CDK4): > 10 µM
- IC50 (CDK2): > 10 µM
